From PMC4335062, “Data-Driven Prediction and Design of bZIP Coiled-Coil Interactions” (PLoS Computational Biology, 2015)
Like-named read-outs stand apart in the source and are kept apart here. Where no end group is shown, it is not given here.

Tests used:
Assay in all cases: Direct-binding FRET assay
[1] = target: T1, ATF3 (Homo sapiens, UniProt P18847)
T1 construct: made in house
T1 sequence (P18847 86-149 limits assumed): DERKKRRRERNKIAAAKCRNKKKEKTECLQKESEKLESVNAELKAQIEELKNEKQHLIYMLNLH
Experimental: (§1) The direct binding assay was performed manually in 384-well plates and is similar to a previously described assay. Wells were filled with 20 μL of 1 mM TCEP-HCl. A 4 μM stock of acceptor protein was made fresh in 1 mM TCEP-HCl, and 20 μL was titrated in 2-fold dilutions over the wells. […] The direct-binding FRET data were fit as previously described. Briefly, the Kd of the designed peptide homodimer was experimentally determined and used with previously determined target homodimer Kd values to determine the heterodimer Kd. The homodimer Kd values used for the human bZIPs were from; experiments done by […] et al. used the same protein constructs for the human bZIP proteins, the same buffer conditions, and the same assay. The fitting used a system of ordinary differential equations to describe the concentrations of homo and heterodimers formed by the donor (D) and acceptor (A) as a function of the heterodimer Kd. MATLAB was used to simulate the binding experiment for different Kd values, and the value that gave the best agreement between simulation and experiment was assigned. A minimum 15% change in the donor fluorescence upon titrating the acceptor peptide from 0 to 1000 nM was required for a fit to be attempted. If this minimum was not met, the interaction was classified as “NS” for no signal change. […] For such curves, we removed the first five points and re-fit the data.

[2] = target: T2, ATF4 (Homo sapiens, UniProt P18848)
T2 construct: made in house
T2 sequence (P18848 278-341 limits assumed): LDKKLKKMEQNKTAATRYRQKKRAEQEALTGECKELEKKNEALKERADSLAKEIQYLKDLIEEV
Experimental: as §1

[3] = target: T3, CREB1 (Homo sapiens, UniProt P16220)
T3 construct: made in house
T3 sequence (P16220 269-327 limits assumed): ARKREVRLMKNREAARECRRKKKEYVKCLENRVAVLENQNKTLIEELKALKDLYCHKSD
Experimental: as §1

[4] = target: T4, MAFF (Homo sapiens, UniProt Q9ULX9)
T4 construct: made in house
T4 sequence (Q9ULX9 51-114 limits assumed): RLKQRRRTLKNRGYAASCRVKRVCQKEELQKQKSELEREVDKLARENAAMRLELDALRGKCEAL
Experimental: as §1

[5] = target: T5, NFE2 (Homo sapiens, UniProt Q16621)
T5 construct: made in house
T5 sequence (Q16621 266-329 limits assumed): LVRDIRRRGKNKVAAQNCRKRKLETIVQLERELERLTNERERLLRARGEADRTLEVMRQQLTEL
Experimental: as §1

[6] = target: T6, NFE2L3 (Homo sapiens, UniProt Q9Y4A8)
T6 construct: made in house
T6 sequence (Q9Y4A8 578-641 limits assumed): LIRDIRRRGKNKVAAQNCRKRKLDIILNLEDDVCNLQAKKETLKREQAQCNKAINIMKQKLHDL
Experimental: as §1

[7] = target: T7, XBP1 (Homo sapiens, UniProt P17861)
T7 construct: made in house
T7 sequence (P17861 70-133 limits assumed): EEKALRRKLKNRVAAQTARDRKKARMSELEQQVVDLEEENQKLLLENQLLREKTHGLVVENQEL
Experimental: as §1

[8] = target: ATF6B (Homo sapiens, UniProt Q99941); design: made in house
ATF6B, sequence (Q99941 325-388 limits assumed): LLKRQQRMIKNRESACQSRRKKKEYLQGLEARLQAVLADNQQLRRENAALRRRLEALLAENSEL
Experimental: as §1

[9] = target: FOS (Homo sapiens, UniProt P01100); design: made in house
FOS, sequence (P01100 137-200 limits assumed): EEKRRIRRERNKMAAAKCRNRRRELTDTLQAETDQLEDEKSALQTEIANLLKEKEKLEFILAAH
Experimental: as §1

[10] = target: JUN (Homo sapiens, UniProt P05412); design: made in house
Experimental: as §1

[11] = target: MAFG (Homo sapiens, UniProt O15525); design: made in house
MAFG, sequence (O15525 51-114 limits assumed): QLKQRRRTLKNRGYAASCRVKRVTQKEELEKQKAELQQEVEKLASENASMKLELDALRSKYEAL
Experimental: as §1

[12] = 4°C, C-terminal fluorescein design as donor, TAMRA target titrated, read-out: Kd
[13] = 4°C, C-terminal rhodamine design, mean or single, read-out: Kd
[14] = 4°C, N-terminal rhodamine design, mean or single, read-out: Kd
[15] = 23°C, C-terminal fluorescein design as donor, TAMRA target titrated, read-out: Kd
[16] = 23°C, C-terminal rhodamine design, mean or single, read-out: Kd
[17] = 23°C, N-terminal rhodamine design, mean or single, read-out: Kd
[18] = 37°C, C-terminal fluorescein design as donor, TAMRA target titrated, read-out: Kd
[19] = 37°C, C-terminal rhodamine design, mean or single, read-out: Kd
[20] = 37°C, N-terminal rhodamine design, mean or single, read-out: Kd
[21] = 4°C, C-terminal fluorescein design as donor, TAMRA target titrated
[22] = 4°C, N-terminal rhodamine design, mean or single
[23] = 23°C, C-terminal fluorescein design as donor, TAMRA target titrated
[24] = 23°C, C-terminal rhodamine design, repeat 1
[25] = 23°C, N-terminal rhodamine design, mean or single
[26] = 37°C, C-terminal fluorescein design as donor, TAMRA target titrated
[27] = 37°C, N-terminal rhodamine design, mean or single
[28] = Kd, 4°C, N-terminal rhodamine design, mean or single
[29] = Kd, 23°C, C-terminal fluorescein design as donor, TAMRA target titrated
[30] = Kd, 23°C, N-terminal rhodamine design, mean or single
[31] = Kd, 37°C, C-terminal fluorescein design as donor, TAMRA target titrated
[32] = Kd, 37°C, N-terminal rhodamine design, mean or single
[33] = 4°C, C-terminal rhodamine design, repeat 1
[34] = Kd, 4°C, C-terminal fluorescein design as donor, TAMRA target titrated

Measured: Kd

EREAQLENRVAHLKEKNQELKAQNLHLKEALSEAQNRNQELKNDA [XBP1-d1]
> 1 µM: [1]; [12] | [1]; [13] | [1]; [14] | [1]; [15] | [1]; [16] | [1]; [17] | [1]; [18] | [1]; [19] | [1]; [20] | [2]; [13] | [2]; [14] | [2]; [16] | [2]; [17] | [2]; [19] | [2]; [20] | [3]; [14] | [3]; [16] | [3]; [17] | [3]; [19] | [3]; [20] | [4]; [12] | [4]; [13] | [4]; [14] | [4]; [15] | [4]; [16] | [4]; [17] | [4]; [18] | [4]; [19] | [4]; [20] | [5]; [12] | [5]; [13] | [5]; [14] | [5]; [15] | [5]; [16] | [5]; [17] | [5]; [18] | [5]; [19] | [5]; [20] | [6]; [13] | [6]; [14] | [6]; [16] | [6]; [17] | [6]; [20] | [7]; 23°C, N-terminal rhodamine design, repeat 1, read-out: Kd | [7]; 23°C, N-terminal rhodamine design, repeat 2, read-out: Kd | [7]; 23°C, N-terminal rhodamine design, repeat 3, read-out: Kd | [8]; [12] | [8]; 4°C, C-terminal rhodamine design, repeat 2, read-out: Kd | [8]; [15] | [8]; [17] | [8]; [18] | [8]; [19] | [8]; 37°C, C-terminal rhodamine design, repeat 1, read-out: Kd | [8]; 37°C, C-terminal rhodamine design, repeat 2, read-out: Kd | [8]; [20] | [9]; [12] | [9]; [13] | [9]; [14] | [9]; [15] | [9]; [16] | [9]; [17] | [9]; [18] | [9]; [19] | [9]; [20] | [10]; [13] | [10]; [14] | [10]; [16] | [10]; [17] | [10]; [19] | [10]; [20] | [11]; [12] | [11]; [13] | [11]; [14] | [11]; [15] | [11]; [16] | [11]; [17] | [11]; [18] | [11]; [19] | [11]; [20]
0.2 to 1 µM: [8]; 4°C, C-terminal rhodamine design, repeat 1, read-out: Kd
> 5 µM: [3]; [13] | [6]; [19]

SIAATLEKEEANLEKMNKKLAAEIESLLKEKDKLESVLNYHE [JUN-d1]
> 5 µM: [2]; [30]
0.0021 µM: [10]; [34]
0.001 µM: [10]; Kd, 4°C, C-terminal rhodamine design, mean or single
0.0161 µM: [10]; [31]
0.0401 µM: [2]; [29]
0.441 µM: [2]; [31]
> 1 µM: [1] | [1]; [21] | [1]; [22] | [1]; [23] | [1]; [24] | [1]; [25] | [1]; [26] | [1]; [27] | [2]; [32] | [3] | [3]; [21] | [3]; [33] | [3]; [22] | [3]; [23] | [3]; [24] | [3]; [25] | [3]; [26] | [3]; [27] | [4] | [4]; [33] | [4]; [22] | [4]; [24] | [4]; [25] | [4]; [27] | [5] | [5]; [21] | [5]; [33] | [5]; [22] | [5]; [23] | [5]; [24] | [5]; [25] | [5]; [26] | [5]; [27] | [6] | [6]; [33] | [6]; [22] | [6]; [24] | [6]; [25] | [6]; [27] | [7] | [7]; [33] | [7]; [22] | [7]; [24] | [7]; [25] | [7]; [27] | [8]; Kd, 4°C, C-terminal rhodamine design, repeat 1 | [8]; [28] | [8]; [29] | [8]; Kd, 23°C, C-terminal rhodamine design, repeat 1 | [8]; [30] | [8]; [31] | [8]; Kd, 37°C, C-terminal rhodamine design, repeat 1 | [8]; [32] | [9] | [9]; [21] | [9]; [22] | [9]; [23] | [9]; [24] | [9]; [25] | [9]; [26] | [9]; [27] | [11] | [11]; [33] | [11]; [22] | [11]; [24] | [11]; [25] | [11]; [27]
0.2 to 1 µM: [8]; [34]
0.543 µM: [2]; Kd, 37°C, C-terminal rhodamine design, mean or single
0.592 µM: [2]; [28]
